The values that follow come from US3959363A, “15-Ethynyl-PFG2β” (American Home Products Corporation, priority 1974, dated 1976).

Assay [1] deals with bronchoconstricting effects of a standard dose of acetylcholine. The experiment in a line: Bronchodilation upon aerosol inhalation in the guinea pig (method of Rosenthale et al.): inhibition of acetylcholine bronchoconstriction. In kind it is in vivo. The source says: In using the compounds of the invention to produce bronchodilating effects in warm-blooded animals, they may be administered in a variety of dosage forms: oral, injectable, and aerosol inhalation. Aerosol inhalation is a preferred method because of its rapid onset of action, great potency, and specificity of action. The particular dosage to obtain the bronchodilating effect will vary with the particular compound employed, the particular animal involved, and the degree of bronchodilation desired. In the guinea pig, by aerosol inhalation, the dose to produce bronchodilation is from about 0.015 micrograms to about 50 micrograms, and preferably from about 0.015 to about 25 micrograms. The bronchodilation produced upon aerosol inhalation can be observed by the method of Rosenthale et al., J. Pharmacol. Exp. Ther., 178, 541 (1971). Using this procedure the following result was obtained.

Assay [2] can be described thus: Hypotensive effect in the anesthetized dog, intravenous route. The assay is classed as in vivo. As to conditions: dose 100 μg/kg. How it is done:
In the use of the compounds of the invention to produce hypotensive effects in warm-blooded animals, administration by the injectable route is preferred, preferably the intravenous route.
Thus in the anesthetized dog by the intravenous route the dose to produce hypotension is from about 1 μg/kg. to about 200 μg/kg. and preferably from about 10 μg/kg. to about 100 μg/kg. Using this procedure the following results were obtained.

SMILES strings stand for the structures.

Regarding `C#C[C@@](O)(/C=C/[C@@H]1[C@@H](C/C=C\CCCC(=O)O)[C@H](O)C[C@H]1O)CCCCC` [7-(2β-[(3S)-3-Ethynyl-3-Hydroxy-Trans-1-Octenyl]-3α,5β-Dihydroxy-1α-cyclopentyl)-Cis-5-Heptenoic Acid], the “Percent Inhibition of the bronchoconstricting effects of a standard dose of acetylcholine” value in assay [1] (dose 1.5 μg) was 64%; in assay [1] (dose 15 μg) it was 78%. The Δb.p. in assay [2] is given as -16 mm. Hg.
